Test results published in publication PMC6413339 (EBioMedicine, 2019).
Read-outs that look alike come from different tables or passages of the source.

Tests used:
Src = target: T1, Src (Homo sapiens, UniProt P12931); test: Cell-free kinase assay (Reaction Biology, ADP-Glo); format: biochemical; conditions: inhibitor 500 nM; 100 μM ATP; average of duplicate
T1 construct: purchased Invitrogen PR4336E
Description: (§1) Cell-free kinase activity assays were performed at Reaction Biology Corporation. Briefly, kinases were incubated with substrates, 100 μM ATP and a 3-fold serial dilution of compounds starting at 1 μM. DMSO was used as control. […] Experiments were performed in duplicates. The concentrations of kinases and substrates used in the assays are indicated on Table S1. Kinase activity was quantified using the ADP-Glo™ Kinase Assay System (Promega, Madison, WI) following the manufacturer's recommendations.

FLT3 = target: T2, FLT3 (Homo sapiens, UniProt P36888); test: Cell-free kinase assay, single dose (Reaction Biology, ADP-Glo); format: biochemical; conditions: inhibitor 500 nM; 100 μM ATP; average of duplicate
T2 construct: purchased Invitrogen PV3182
T2 sequence (P36888 564-993 limits assumed): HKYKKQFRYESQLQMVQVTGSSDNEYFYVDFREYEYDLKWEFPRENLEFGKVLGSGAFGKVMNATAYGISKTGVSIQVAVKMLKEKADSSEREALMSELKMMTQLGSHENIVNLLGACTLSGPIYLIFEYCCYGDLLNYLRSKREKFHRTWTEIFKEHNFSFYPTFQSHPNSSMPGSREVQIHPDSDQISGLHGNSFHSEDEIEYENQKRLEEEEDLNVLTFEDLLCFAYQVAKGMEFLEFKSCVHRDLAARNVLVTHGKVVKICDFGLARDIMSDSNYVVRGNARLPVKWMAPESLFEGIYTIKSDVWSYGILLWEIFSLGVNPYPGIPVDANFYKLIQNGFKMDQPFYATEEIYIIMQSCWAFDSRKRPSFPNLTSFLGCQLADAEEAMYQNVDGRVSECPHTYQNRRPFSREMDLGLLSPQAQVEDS
Description: as §1, with “Briefly, kinases were incubated with substrates, 100 μM ATP and a 3-fold serial dilution of compounds starting at 1 μM.” left out

[1] = tested on: MOLM-14 (ITD, F691 L) cells; test: Antiproliferative activity (CellTitre-Blue, 72 h); format: cell-based, human
Description: (§2) Cells were seeded into 96-well tissue culture-treated plates at 2.0 × 10^4 cells/mL for up to 24 h. DMSO stock solutions of compounds were serially diluted first in DMSO and subsequently into RPMI before being added to the cell cultures in triplicates, with 10 μM being the highest tested concentration. The plates were incubated for 72 h as above. The CellTitre-Blue assay (Promega, Madison WI) was then added to the cultures and incubated a further 4 h before the fluorescence measured following the manufacturers recommendations. The fluorescence data from compounds were normalized to that DMSO and the resulting data fitted to a non-linear regression equation to obtain IC50 using GraphPad Prism 5.0 Software (La Jolla, CA, USA).

MOLM-14 cells = test: Antiproliferative activity (CellTitre-Blue, 72 h); format: cell-based, human; conditions: 72 h incubation, triplicates, read-out: IC50 (mean ±SD, nM) MOLM-14
Description: as §2

[2] = tested on: MOLM-14 (ITD, D835Y) cells; test: Antiproliferative activity (CellTitre-Blue, 72 h); format: cell-based, human; conditions: 72 h incubation, triplicates, read-out: IC50 (mean ±SD, nM) MOLM-14 (ITD, D835Y)
Description: as §2

MV4–11 cells = test: Antiproliferative activity (CellTitre-Blue, 72 h); format: cell-based, human; conditions: for IC50: 72 h incubation, triplicates, read-out: IC50 (mean ±SD, nM) MV4–11
Description: as §2

MV4–11-luc cells = test: In vivo efficacy, orthotopic human AML model; conditions: 25 mg/kg i.p. three times a week (MWF); NSG or NRG mice
Description: The in vivo efficacy of compounds was assessed in an orthotopic human AML model in NSG (NOD scid gamma, NOD-scid IL2Rg^null) mice that were bred at University of Maryland Baltimore (mating pairs acquired from Jackson Laboratories; Maine). […]. Three days later, engraftment was assessed by imaging on a Xenogen IVIS-2 Imaging System (Alameda) after an intraperitoneal (IP) injection of 150 mg/kg luciferin. Mice were sorted into four or five groups (n = 5) so that mean intensity (i.e., disease burden) was equal. Dosing started on day of sorting. Compounds were dissolved in 85% PBS (pH 7.4) buffer containing 10% DMSO and 5% Cremophore. The vehicle (buffer without compounds) was used as control. Mice were injected 3 to 5 days per week via IP injection. Mice were weighed on day of dosing and imaged once per week. […]. All mice were housed in a 12-h light/dark cycle with access to food and water ad libitum. Studies were performed with Institutional Animal Care and Use Committee (UMB and Purdue University) approval.
[…]. Female mice were dosed daily for 5 days via intraperitoneal injection and then monitored for an additional week for weight loss, a sign of toxicity in mice. […] To evaluate the anti-leukemic efficacy in vivo, six-week-old female NSG or NRG mice were injected intravenously with FLT3-ITD expressing acute myeloid leukemia cells (MV4–11), expressing luciferase. […] Dosing (i.p) with the compounds was then started. The mice were dosed with 25 mg/kg of the compounds three times a week (MWF). […] […].

[3] = Homo sapiens, MOLM-14, 72 h, 72 h incubation, triplicates, read-out: IC50 (mean ±SD, nM) MOLM-14 (ITD, F691 L)

T1 sequence (P12931 whole entry): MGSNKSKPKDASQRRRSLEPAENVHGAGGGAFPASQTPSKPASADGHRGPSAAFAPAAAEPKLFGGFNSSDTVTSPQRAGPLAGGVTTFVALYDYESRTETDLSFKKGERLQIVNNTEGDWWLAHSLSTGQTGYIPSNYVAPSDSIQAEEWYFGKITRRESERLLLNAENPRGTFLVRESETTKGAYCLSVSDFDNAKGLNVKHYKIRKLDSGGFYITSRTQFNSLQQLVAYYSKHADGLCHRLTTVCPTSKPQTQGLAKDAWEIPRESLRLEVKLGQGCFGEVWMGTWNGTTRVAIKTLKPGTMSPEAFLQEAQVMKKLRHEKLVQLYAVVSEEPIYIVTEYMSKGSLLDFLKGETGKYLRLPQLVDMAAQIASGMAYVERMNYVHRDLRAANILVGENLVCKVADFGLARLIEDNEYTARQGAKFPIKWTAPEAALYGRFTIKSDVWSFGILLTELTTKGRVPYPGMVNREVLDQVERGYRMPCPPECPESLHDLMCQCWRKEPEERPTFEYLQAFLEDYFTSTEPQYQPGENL

## Cc1ccc(C(=O)Nc2ccc(CN3CCN(C)CC3)c(C(F)(F)F)c2)cc1C#Cc1cccnc1N [Compound 1]
Src
  inhibition at 0.5 µM: 99%
FLT3
  inhibition at 0.5 µM: 96%

## Cc1ccc(C(=O)Nc2ccc(CN3CCN(C)CC3)c(C(F)(F)F)c2)cc1C#Cc1ccc(N)nc1 [Compound 2]
Src
  inhibition at 0.5 µM: 99%
FLT3
  inhibition at 0.5 µM: 99%

## Cc1ccc(C(=O)Nc2ccc(CN3CCN(C)CC3)c(C(F)(F)F)c2)cc1C#Cc1nc(Br)cnc1N [Compound 3]
Src
  inhibition at 0.5 µM: 99%
FLT3
  inhibition at 0.5 µM: 81%

## Cc1ccc(C(=O)Nc2ccc(CN3CCN(C)CC3)c(C(F)(F)F)c2)cc1C#Cc1c(N)ncc2ccccc12 [Compound 4]
Src
  inhibition at 0.5 µM: 100%
FLT3
  inhibition at 0.5 µM: 93%

## Cc1ncc(C(=O)Nc2ccc(CN3CCN(C)CC3)c(C(F)(F)F)c2)cc1C#Cc1c(N)ncc2ccccc12 [Compound 5]
Src
  inhibition at 0.5 µM: 100%
[1]; [3]
  IC50: 1.5 ± 0.1 nM
MOLM-14 cells; Homo sapiens, MOLM-14
  IC50: 2.8 ± 0.02 nM
[2]; Homo sapiens, MOLM-14, 72 h
  IC50: 13 ± 0.4 nM
MV4–11 cells; Homo sapiens, MV4-11, 72 h
  IC50: 0.4 ± 0.004 nM
FLT3
  inhibition at 0.5 µM: 99%
MV4–11-luc cells
  reduction in leukemia burden: > 99%

## Cc1ccc(C(=O)Nc2ccc(CN3CCN(C)CC3)c(C(F)(F)F)c2)cc1C#Cc1c(N)ncc2ccc(F)cc12 [Compound 6]
Src
  inhibition at 0.5 µM: 99%
FLT3
  inhibition at 0.5 µM: 90%

## Cc1ccc(C(=O)Nc2ccc(CN3CCN(C)CC3)c(C(F)(F)F)c2)cc1C#Cc1c(N)ncc2ccc(Cl)cc12 [Compound 8]
MV4–11 cells; Homo sapiens, MV4-11, 72 h
  IC50: ~0.5 nM
FLT3
  inhibition at 0.5 µM: 97%

## Cc1ncc(C(=O)Nc2ccc(CN3CCN(C)CC3)c(C(F)(F)F)c2)cc1C#Cc1c(N)ncc2ccc(Cl)cc12 [Compound 9]
Src
  inhibition at 0.5 µM: 98%
[1]; [3]
  IC50: 6.9 ± 0.05 nM
MOLM-14 cells; Homo sapiens, MOLM-14
  IC50: 2.3 ± 0.1 nM
[2]; Homo sapiens, MOLM-14, 72 h
  IC50: 10.4 ± 0.3 nM
MV4–11 cells
  IC50: 0.4 ± 0.04 nM
MV4–11 cells; Homo sapiens, MV4-11, 72 h
  IC50: ~0.5 nM
FLT3
  inhibition at 0.5 µM: 98%

## Cc1cnc(C(=O)Nc2ccc(CN3CCN(C)CC3)c(C(F)(F)F)c2)cc1C#Cc1c(N)ncc2ccc(Cl)cc12 [Compound 10]
Src
  inhibition at 0.5 µM: 93%
FLT3
  inhibition at 0.5 µM: 75%

## Cc1ccc(C(=O)Nc2ccc(CN3CCN(C)CC3)c(C(F)(F)F)c2)nc1C#Cc1c(N)ncc2ccc(Cl)cc12 [Compound 11]
Src
  inhibition at 0.5 µM: 16%
[1]; [3]
  IC50: ≤ 15 nM
[2]; Homo sapiens, MOLM-14, 72 h
  IC50: ≤ 15 nM
FLT3
  inhibition at 0.5 µM: 43%

## Cc1ccc2cnc(N)c(C#Cc3cc(C(=O)Nc4ccc(CN5CCN(C)CC5)c(C(F)(F)F)c4)ccc3C)c2c1 [Compound 12]
Src
  inhibition at 0.5 µM: 100%
FLT3
  inhibition at 0.5 µM: 98%

## Cc1ccc2cnc(N)c(C#Cc3cc(C(=O)Nc4ccc(CN5CCN(C)CC5)c(C(F)(F)F)c4)cnc3C)c2c1 [Compound 13]
Src
  inhibition at 0.5 µM: 98%
[1]; [3]
  IC50: 1.1 ± 0.04 nM
MOLM-14 cells; Homo sapiens, MOLM-14
  IC50: 1.4 ± 0.03 nM
[2]; Homo sapiens, MOLM-14, 72 h
  IC50: 4.7 ± 0.03 nM
MV4–11 cells; Homo sapiens, MV4-11, 72 h
  IC50: 0.4 ± 0.006 nM
FLT3
  inhibition at 0.5 µM: 100%

## COc1ccc2c(N)ncc(C#Cc3cc(C(=O)Nc4ccc(CN5CCN(C)CC5)c(C(F)(F)F)c4)cnc3C)c2c1 [Compound 14]
Src
  inhibition at 0.5 µM: 99%
FLT3
  inhibition at 0.5 µM: 98%

## Cc1ccc(C(=O)Nc2ccc(CN3CCN(C)CC3)c(C(F)(F)F)c2)cc1C#Cc1cnc(N)c2ccccc12 [Compound 15]
Src
  inhibition at 0.5 µM: 97%
[1]; [3]
  IC50: ≤ 15 nM
[2]; Homo sapiens, MOLM-14, 72 h
  IC50: ≤ 15 nM
FLT3
  inhibition at 0.5 µM: 100%

## Cc1ncc(C(=O)Nc2ccc(CN3CCN(C)CC3)c(C(F)(F)F)c2)cc1C#Cc1cnc(N)c2ccccc12 [Compound 16]
Src
  inhibition at 0.5 µM: 100%
FLT3
  inhibition at 0.5 µM: 98%

## Cc1ncc(C(=O)Nc2ccc(CN3CCN(C)CC3)c(C(F)(F)F)c2)cc1C#Cc1cnc(N)c2ccc(F)cc12 [Compound 17]
Src
  inhibition at 0.5 µM: 98%
FLT3
  inhibition at 0.5 µM: 98%

## COc1ccc2cnc(N)c(C#Cc3cc(C(=O)Nc4ccc(CN5CCN(C)CC5)c(C(F)(F)F)c4)cnc3C)c2c1 [Compound 18]
Src
  %Src inhibition: 98%
[1]; 72 h incubation, triplicates, read-out: IC50 (mean ±SD, nM) MOLM-14 (ITD, F691 L)
  IC50: 1.1 ± 0.04 nM
[1]; Table S2, superscript g, the values are: IC50
  IC50: 1.1 nM
MOLM-14 cells
  IC50: 0.2 ± 0.002 nM
[2]
  IC50: 11.1 ± 0.08 nM
MV4–11 cells
  IC50: 0.2 ± 0.001 nM
MV4–11 cells; Table S2, superscript d, the values are: IC50
  IC50 MV4-11: 0.2 nM
FLT3
  %FLT3 inhibition: 97%

## Cc1ccc(C(=O)Nc2ccc(CN3CCN(C)CC3)c(C(F)(F)F)c2)cc1C#Cc1cnc(N)c2ncccc12 [Compound 19]
Src
  inhibition at 0.5 µM: 98%
FLT3
  inhibition at 0.5 µM: 99%

## Cc1ncc(C(=O)Nc2ccc(CN3CCN(C)CC3)c(C(F)(F)F)c2)cc1C#Cc1cnc(NC2CC2)c2ncccc12 [Compound 21]
Src
  inhibition at 0.5 µM: 20%
FLT3
  inhibition at 0.5 µM: 80%

## Cc1ccc(C(=O)Nc2ccc(CN3CCN(C)CC3)c(C(F)(F)F)c2)cc1C#Cc1cncc2ccccc12 [Compound 22]
Src
  inhibition at 0.5 µM: 100%
FLT3
  inhibition at 0.5 µM: 98%

## Cc1ccc(C(=O)Nc2ccc(CN3CCN(C)CC3)c(C(F)(F)F)c2)cc1C#Cc1cncc2ncccc12 [Compound 23]
Src
  inhibition at 0.5 µM: 99%
FLT3
  inhibition at 0.5 µM: 99%

## Cc1ncc(C(=O)Nc2ccc(CN3CCN(C)CC3)c(C(F)(F)F)c2)cc1C#Cc1cncc2ncccc12 [Compound 24]
Src
  inhibition at 0.5 µM: 98%
[1]; [3]
  IC50: 1.8 ± 0.08 nM
MOLM-14 cells; Homo sapiens, MOLM-14
  IC50: 0.2 ± 0.01 nM
[2]; Homo sapiens, MOLM-14, 72 h
  IC50: 3 ± 0.3 nM
MV4–11 cells; Homo sapiens, MV4-11, 72 h
  IC50: 0.2 ± 0.009 nM
FLT3
  inhibition at 0.5 µM: 100%

## CC1(COc2ccc3c(c2)ncn3-c2ccc3cccc(N4CCC(N)CC4)c3n2)COC1 [Crenolanib, reference compound]
[1]; [3]
  IC50: 15.6 ± 0.4 nM
MOLM-14 cells; Homo sapiens, MOLM-14
  IC50: 4.5 ± 0.8 nM
[2]; Homo sapiens, MOLM-14, 72 h
  IC50: 6.6 ± 0.03 nM
MV4–11 cells; Homo sapiens, MV4-11, 72 h
  IC50: 3.1 ± 0.06 nM
FLT3
  inhibition at 0.5 µM: 99%

## CO[C@@H]1[C@H](N(C)C(=O)c2ccccc2)C[C@H]2O[C@]1(C)n1c3ccccc3c3c4c(c5c6ccccc6n2c5c31)C(=O)NC4 [Midostaurin, reference compound]
MOLM-14 cells; Homo sapiens, MOLM-14
  IC50: 16.1 ± 0.02 nM

## Cc1ccc(C(=O)Nc2ccc(CN3CCN(C)CC3)c(C(F)(F)F)c2)cc1C#Cc1cnc2cccnn12 [Ponatinib, reference compound]
[1]; Homo sapiens, MOLM-14, 72 h incubation, triplicates, read-out: IC50 (mean ±SD, nM) MOLM-14 (ITD, F691 L)
  IC50: 6.8 ± 0.03 nM
MOLM-14 cells; Homo sapiens, MOLM-14
  IC50: 0.5 ± 0.1 nM
[2]; Homo sapiens, MOLM-14
  IC50: 52.6 ± 0.3 nM
MV4–11 cells; Homo sapiens, MV4-11
  IC50: 0.1 ± 0.001 nM

## CC(C)(C)c1cc(NC(=O)Nc2ccc(-c3cn4c(n3)sc3cc(OCCN5CCOCC5)ccc34)cc2)no1 [Quizartinib, reference compound]
[1]; [3]
  IC50: 48.5 ± 0.6 nM
MOLM-14 cells; Homo sapiens, MOLM-14
  IC50: 0.5 ± 0.02 nM
[2]; Homo sapiens, MOLM-14, 72 h
  IC50: 23 ± 0.5 nM
MV4–11 cells; Homo sapiens, MV4-11, 72 h
  IC50: 0.4 ± 0.02 nM
